Reference: US7192928B1, “T cell antigen receptor peptides” (Northern Sydney & Central Coast Area Health Services, priority 1996, dated 2007)
Values joined by “and” are separate entries in the source; they are usually repeats but may differ in a detail not shown here. Equal entries are not always repeated. Where two headings read alike, the source gives them in different places. Marks after values point to notes of the source that are not given here.

Legend:
[1] = system: adjuvant induced arthritis in rats; experiment: Adjuvant-induced arthritis in rats; assay type: in vivo, rat; conditions: for Summary of in vivo adjuvant induced arthritis results: TREATMENT: 7 mg peptide with 1 mg MTB, rats with arthritis/rats in group; for efficacy against MTB-induced arthritis: section (ii); for efficacy against MTB-induced arthritis / rats showing no symptoms of arthritis / rats with mild disease / minor symptoms: 7 mg peptide; for effectiveness in adjuvant induced arthritis model, summary statement: summary of Table 4; for rats showing no symptoms of arthritis: duration of the experiment
[2] = Solubility of the peptides in stock solutions; assay type: physicochemical; conditions: for appearance of peptide stock solution: stock solutions 1 mg/ml or 1 mM
Method: The solubility of the peptides was variable. At the concentration of the stock solutions, 1 mg/ml or 1 mM, most peptide solutions looked clear. […] Therefore, the true concentration of peptides in solution in the culture wells would be less than those nominated in the case of these partially soluble peptides. Core peptide could be dissolved at 2 mg/ml, but was not completely soluble at 5 mg/ml. […] The vehicle for the peptides, except M and N, was 0.1% acetic acid which gave 0.01%, i.e., 1.75 mM in the wells. […] In these experiments, effects of peptides could still be determined by comparison with the vehicle control. The 0.05M sodium carbonate buffer, used to dissolve peptides M and N, was not as detrimental to line T-cells as acetic acid.

[3] = system: rat primed lymph node cells (PLNC); conditions: for effect on antigen-stimulated T-cell proliferation: PLNC Experiment 2, FIG. 3, peptides alone and in combination; for inhibition of antigen-stimulated T-cell proliferation, overall statement: PLNCs and T-cell lines, summary over experiments
[4] = system: rat T-cell line specific to MTB; experiment: Antigen-stimulated proliferation of MTB-specific T-cell line (3H-thymidine incorporation); assay type: cell-based; conditions: for effect on T-cell proliferation / counts relative to vehicle control: 100 μM
[5] = peptides 7 mg/rat, CS 50 mg/kg, DXM 2 mg/kg
[6] = section (iii), 5 rats per group
[7] = T-Cell Line Experiment 2, FIG. 5
[8] = respective buffers (0.1% acetic acid; 0.05M sodium carbonate for M and N)
[9] = section (i), summary of Table 3 experiments
[10] = PLNC Experiment 1, FIG. 2, peptide 100 μg/ml

## C[C@@H]1C[C@H]2[C@@H]3CCC4=CC(=O)C=C[C@]4(C)[C@@]3(F)[C@@H](O)C[C@]2(C)[C@@]1(O)C(=O)CO [DXM*, dexamethasone, reference compound]
[1]; [5]
  EFFECT on adjuvant induced arthritis: No effect+

## H-AGFNLLMT-OH [Peptide O, A G F N L L M T]
[1]
  Summary of in vivo adjuvant induced arthritis results: TREATMENT: 1/10*
  efficacy against MTB-induced arthritis: most effective at ameliorating the development of MTB-induced arthritis
  effectiveness in adjuvant induced arthritis model, summary statement: very effective
[2]
  appearance of peptide stock solution: turbid or had undissolved particles

## H-FLFAEIVSI-OH [Peptide N, F L F A E I V S I]
[1]
  Summary of in vivo adjuvant induced arthritis results: TREATMENT: 0/5*
  effectiveness in adjuvant induced arthritis model, summary statement: very effective
[1]; section (iii)
  protection: protective to a variable extent
[1]; [6]
  rats showing no symptoms of arthritis: All five
[3]
  effect on antigen-stimulated T-cell proliferation: did not reduce proliferation
[4]; [7]
  effect on T-cell proliferation: no effects
[2]; [8]
  solubility in words: soluble in their respective buffers

## H-GLRILLLKV-OH [CP, G L R I L L L K V]
[1]; first experiment, three rats per group, after 18 days, suspended in adjuvant, base of tail
  animals with no evidence of arthritis: 2/3
[1]; [5]
  EFFECT on adjuvant induced arthritis: Protective
[1]; [9]
  EFFECT on adjuvant induced arthritis: Best results
[3]
  degree of inhibition of antigen-stimulated T-cell proliferation: 50-9096%
  effect on antigen-stimulated T-cell proliferation: reduced antigen-stimulated T-cell proliferation, whether freshly dissolved or stored for more than three months at 4 °C
  inhibition of antigen-stimulated T-cell proliferation, overall statement: most effective
[3]; 20 μl of 1, 2 or 5 mg/ml stock added to the wells (0.1, 0.2, 0.5 mg/ml)
  inhibition at different concentrations in the wells: 0.2 mg/ml CP was more inhibitory than 0.1 mg/ml and 0.5 mg/ml was less effective
[3]; PLNC Experiment 1, FIG. 2, peptide 100 μg/ml, MTB 100 μg/ml
  counts relative to the vehicle control (T-cell proliferation): approximately 10%
[3]; listed as core peptide
  inhibition of antigen-stimulated T-cell proliferation, overall statement: effective at inhibiting antigen-stimulated T-cell proliferation
[3]; first experiment
  proliferation reduced by: go
[4]; T-Cell Line Experiment 1, FIG. 4, 100 μg/ml, vehicle control approximately 30000
  counts (tritiated thymidine incorporation): approximately 18000 cpm
[4]; T-Cell Line Experiment 1, FIG. 4, 200 μg/ml
  counts relative to the control level: about 25%
[4]; [7]
  counts relative to vehicle control: approximately 33%
[4]; T-Cell Line Experiment 2, FIG. 5, 200 μM
  counts relative to the control: ~16%

## H-IIVTDVIATL-OH [Peptide M, I I V T D V I A T L]
[1]
  Summary of in vivo adjuvant induced arthritis results: TREATMENT: 2/5
  effectiveness in adjuvant induced arthritis model, summary statement: variable response in the delay of disease induction and severity
[1]; section (iii)
  protection: protective to a variable extent
[1]; [6]
  rats with mild disease / minor symptoms: Two
  rats showing no symptoms of arthritis: One
[1]; section (iii), 5 rats per group, on days 19 and 21
  rats of the group killed: 2
[3]
  effect on antigen-stimulated T-cell proliferation: did not reduce proliferation
[4]; [7]
  effect on T-cell proliferation: no effects
[2]
  solubility in words: soluble in their respective buffers

## H-ILLLKVAG-OH [B, I L L L K V A G]
[1]; [5]
  EFFECT on adjuvant induced arthritis: Protective
[1]; [9]
  EFFECT on adjuvant induced arthritis: Best results

## H-IVIVDICIT-OH [Peptide L, I V I V D I C I T]
[1]
  Summary of in vivo adjuvant induced arthritis results: TREATMENT: 0/5*
  effectiveness in adjuvant induced arthritis model, summary statement: very effective
[1]; section (iv), FIG. 10, 7 mg peptide L, five rats
  weight loss: none of the peptide L treated group lost weight
[1]; section (iv), FIG. 11(a–d), 7 mg peptide L
  paw and ankle thickness: significantly decreased compared to control

## H-LDILLLEV-OH [E, L D I L L L E V]
[1]; [5]
  EFFECT on adjuvant induced arthritis: No effect
[1]; [9]
  EFFECT on adjuvant induced arthritis: no effect

## H-LGILLLGV-OH [C, L G I L L L G V]
[1]; [5]
  EFFECT on adjuvant induced arthritis: No effect
[1]; [9]
  EFFECT on adjuvant induced arthritis: no effect

## H-LGILLLKV-OH [I, L G I L L L K V]
[1]; [5]
  EFFECT on adjuvant induced arthritis: Protective
[2]
  appearance of peptide stock solution: turbid or had undissolved particles

## H-LLMTLRLWSS-OH [Peptide P, L L M T L R L W S S]
[1]
  Summary of in vivo adjuvant induced arthritis results: TREATMENT: 0/5
  effectiveness in adjuvant induced arthritis model, summary statement: variable response in the delay of disease induction and severity
[1]; Table 4, of 5 treated rats
  rats that developed minor symptoms: (4 developed minor symptoms)
[1]; section (iii)
  protection: protective to a variable extent
[1]; [6]
  rats with mild disease / minor symptoms: four
  rats showing no symptoms of arthritis: one
[3]; [10]
  effect on T-cell proliferation: most inhibitory
[3]
  effect on antigen-stimulated T-cell proliferation: showed activity
[4]; [7]
  effect on T-cell proliferation: marginal effect
[2]
  appearance of peptide stock solution: turbid or had undissolved particles

## H-LRILLLGV-OH [Peptide H, L R I L L L G V]
[1]; [5]
  EFFECT on adjuvant induced arthritis: Protective
[3]; [10]
  effect on T-cell proliferation: appeared to reduce T-cell proliferation
[4]; [7]
  counts relative to vehicle control: 66%
[2]
  appearance of peptide stock solution: turbid or had undissolved particles

## H-MGLRILLL-OH [Peptide A, M G L R I L L L]
[1]; [5]
  EFFECT on adjuvant induced arthritis: Protective

## H-SSDVPCDATLT-OH [K, S S D V P C D A T L T]
[1]
  Summary of in vivo adjuvant induced arthritis results: TREATMENT: 5/10
  efficacy against MTB-induced arthritis: comparable in efficacy
  effectiveness in adjuvant induced arthritis model, summary statement: variable response in the delay of disease induction and severity
[2]; [8]
  solubility in words: soluble in their respective buffers

## H-YGRADCGITS-OH [Peptide J, Y G R A D G G I T S]
[1]
  Summary of in vivo adjuvant induced arthritis results: TREATMENT: 3/10*
  efficacy against MTB-induced arthritis: comparable in efficacy
  effectiveness in adjuvant induced arthritis model, summary statement: very effective
